Consider two molecules from patent publication US9458414B2, “Cleaning, surfactant, and personal care compositions” (SEGETIS, INC., priority 2012, dated 2016).

A value given as a limit tells only on which side of the number the result lay.

What all share (type): physicochemical
Data set [1] in a line: Vanillin composition in ketal alcohol (1a). The settings on record: 75% ketal alcohol (1a) to 25% vanillin by weight, room temperature. Here is the method: Vanillin was dissolved into the ketal alcohol (1a) at room temperature using 75% ketal alcohol (1a) to 25% vanillin by weight.
A short description of data set [2]: Coupling of water and octanoic acid by hydrotropes (amount producing a single phase). Here is the method:
Hydrotropes were added to a two-component mixture of octanoic acid and deionized (DI) water to find the amount that produced a single phase from the two separate phases of water and octanoic acid.
The percent hydrotrope required to compatibilize phases (and the resulting percent octanoic acid) were calculated and the results are shown in Table 4 as well as FIG. 1.

Data set [3] can be described thus: Coupling of water and soy methyl ester by hydrotropes. The protocol: Hydrotropes were added to a two-component mixture of soy methyl ester and DI water to find the amount that produced a single phase from the two separate phases of water and soy methyl ester. The percent hydrotrope required to compatibilize the phases was calculated.
A short description of data set [4]: Coupling of water and castor oil by hydrotropes.
Data set [5] is described as follows: Hard surface cleaning formulation pH testing over 7 days. The conditions noted are these: 5 g solvent per 100 g. Here is the method:
Formulations were prepared by combining ingredients and mixing until homogeneous. Next, pH measurements were taken over 7 days.

Data set [6] in a line: Hard surface cleaning formulation freeze-thaw testing. The settings on record: Example 5 formulation containing the solvent, 0° C. freezer >12 hours, thaw to room temperature. The protocol: Formulations as in Example 5 were prepared by combining ingredients and mixing until homogeneous. Freeze-thaw testing was performed over 3 cycles. Each cycle was putting the formulations into a 0° C. freezer for greater than 12 hours, then taking them out and allowing the samples to thaw to room temperature and then making the visual observation.

A short description of data set [7]: Hard surface cleaning formulation heat cloud point testing. The conditions noted are these: Example 5 formulation containing the solvent. Here is the method:
Formulations as in Example 5 were prepared by combining ingredients and mixing until homogeneous.

The mark [8] stands for this setting: ratio of water:octanoic acid 10:90.
[9] abbreviates: ratio of water:octanoic acid 30:70.
The mark [10] stands for this setting: ratio of water:octanoic acid 50:50.
Where [11] appears, read: ratio of water:octanoic acid 70:30.
Where [12] appears, read: ratio of water:octanoic acid 90:10.
[13] abbreviates: ratio of water:soy methyl esters 10:90.
The mark [14] stands for this setting: ratio of water:soy methyl esters 30:70.
The mark [15] stands for this setting: ratio of water:soy methyl esters 50:50.
Where [16] appears, read: ratio of water:soy methyl esters 70:30.
Where [17] appears, read: ratio of water:soy methyl esters 90:10.
Where [18] appears, read: ratio of water to castor oil 10:90.
[19] abbreviates: ratio of water to castor oil 30:70.
Setting [20] is: ratio of water to castor oil 50:50.
Setting [21] is: ratio of water to castor oil 70:30.
The mark [22] stands for this setting: ratio of water to castor oil 90:10.

Turning to `COc1cc(C=O)ccc1O` [Vanillin], the “Appearance of mixture in ketal alcohol (1a)” value in data set [1] is listed as “homogeneous clear liquid with no signs of precipitate”.
As for `CCOC(=O)CCC1(C)OCC(CO)O1` (stereo not drawn) [EtLGK, glycerol ketal of ethyl levulinic acid], the “Wt % Hydrotrope required to compatibilize phases” value stood at 38% in data set [2] (setting [8]); 59% in data set [2] (setting [9]); 69% in data set [2] (setting [10]); 66% in data set [2] (setting [11]); 58% in data set [2] (setting [12]); 61% in data set [4] (setting [18]). Moreover, the “Wt % Hydrotrope required to compatibilize phases” value in data set [4] (setting [19]) amounted to 76%; in data set [4] (setting [20]), 82%; in data set [4] (setting [21]), 86%; in data set [4] (setting [22]), 85%. Further, the “Wt % Octanoic Acid (resulting, at compatibilization)” value in data set [2] (setting [8]) is 55%; in data set [2] (setting [9]) it was 29%; in data set [2] (setting [10]), 15%; in data set [2] (setting [11]), 10%; in data set [2] (setting [12]), 4%. Moreover, the “Amount of hydrotrope that produced a single phase” value is reported as 3.11 grams in data set [2] (water:octanoic acid 10:90 (DI water 0.5 g, octanoic acid 4.5 g)); 7.2 grams in data set [2] (water:octanoic acid 30:70 (DI water 1.5 g, octanoic acid 3.5 g)); 22.68 grams in data set [2] (water:octanoic acid 50:50 (DI water 5.0 g, octanoic acid 5.0 g)); 9.79 grams in data set [2] (water:octanoic acid 70:30 (DI water 3.5 g, octanoic acid 1.5 g)); 6.84 grams in data set [2] (water:octanoic acid 90:10 (DI water 4.5 g, octanoic acid 0.5 g)). The “Wt % Hydrotrope required to compatibilize the phases” value worked out at 78% in data set [3] (setting [13]); 83% in data set [3] (setting [14]); 86% in data set [3] (setting [15]); 86% in data set [3] (setting [16]); 84% in data set [3] (setting [17]). Also, the “Wt % Soy Methyl Esters (at compatibilization)” value amounted to 20% in data set [3] (setting [13]); 12% in data set [3] (setting [14]); 7% in data set [3] (setting [15]); 4% in data set [3] (setting [16]); 2% in data set [3] (setting [17]). In addition, the “Wt % Castor oil (at compatibilization)” value in data set [4] (setting [18]) came to 35%; in data set [4] (setting [19]) it was 17%; in data set [4] (setting [20]), 9%; in data set [4] (setting [21]), 4%; in data set [4] (setting [22]) it was 1%. In addition, the “pH stability of the formulation containing the solvent” value in data set [5] was “underwent significant pH drift downward”. Also, the Freeze-thaw visual observation entry in data set [6] (Cycle 1) is “stable;”; in data set [6] (Cycle 2), “gradient;”; in data set [6] (Cycle 3), “gradient;”. The Cloudiness on heating entry in data set [7] was “showed no signs of cloudiness”. The same molecule came in with a Cloud point in data set [7] (heated while mixing) greater than 100 °C.
